Source: patent US8366962B2, “Polymerizable liquid crystal compounds having oxiranyl group, polymerizable liquid crystal compositions and polymers” (JNC Corporation, priority 2009, dated 2013)

Test: Solubility in PGMEA/MMP: deposition of crystals when the solution is allowed to stand at room temperature
Format: physicochemical
Conditions: 70/30 by weight mixture with compound (M1-19-1), 30% by weight solution in PGMEA/MMP=9/1 by volume
Description: Incidentally, PGMEA and MMP stand for propylene glycol […] ether acetate and methyl 3-methoxypropionate, respectively.

time allowed to stand without deposition of crystals: more than 3 days
SMILES: Cc1cc(OC(=O)c2ccc(OCCCCOCC3(C)CO3)cc2)ccc1OC(=O)c1ccc(OCCCCOCC2(C)CO2)cc1 (stereo not shown) [Compound (1-1-14)]
